This is an account of results in US7192731B2, “Methods for efficient extraction of carotenoids using an esterase” (The State of Israel, Ministry of Agriculture & Rural …, priority 2001, dated 2007).

One test relates to lipase. The test is described as follows: Effect of CaCl2 and NaCl on lipase activity (deestrification of red-pepper carotenoids). The test is classed as biochemical. The settings on record: 150 mM NaCl without CaCl2. The method, then:
The activity of lipase at pH 7.6 at 37.0° C. for 18 hours on the deestrification of red-pepper carotenoids was measured in the presence of CaCl2 and NaCl.

Test [1] in a line: Enzymatic deesterification of paprika oleoresin carotenoids by lipases, HPLC. In kind it is biochemical. The settings on record: similar assays, 37° C. On the procedure: HPLC was conducted on a Shimadzu LC-10 AT equipped with SCL-10A Shimadzu diode array detector. Photodiode array measurements of spectral properties from the individual peaks (from 260 to 540 nm) were determined at the upslope, apex and downslope. The column (Merck RP-18e 3.4×250 […], 5-μm particles) was used for HPLC separations. The peaks were detected at 450 and 474 nm.
Paprika oleoresin (20 mg) was mixed with TWEEN-20 (200 μl) or deoxycholate (100 mg) and 10 ml of H2O. The emulsion has been shaken at 37° C. for 24 hours. Extraction of carotenoids was performed by the addition of 4 ml of ethanol and 5 ml of hexane. The extraction with hexane was done repeatedly until no color could be observed in the extracts. The combined hexane extracts were washed with water (25 ml) and dried over anhydrous sodium sulfate for HPLC determination of the carotenoids.
Immobilized lipase from Candida rugosa (Sigma-Aldrich Corp., St Louis, Mo.). Following use in deesterification, the enzyme-bearing beads are recovered by precipitation at 15 K RPM, and stored at 4° C. until reuse.
Immobilized lipase beads may be recycled by precipitation, and reused. […] FIG. 8 compares the efficiency of deesterification with fresh, once-, and twice-recycled immobilized lipase, quantifying the efficient reuse of the immobilized enzyme with paprika oleoresin. […]

In the case of `[Cl-].[Na+]` [NaCl], the deestrification in the test with lipase was determined as 87%.

B1: pancreatic lipase: pancreatic lipase from porcine, Sigma (protein, UniProt P00591 1-450, looked up)
Pancreatic triacylglycerol …: SEVCFPRLGCFSDDAPWAGIVQRPLKILPWSPKDVDTRFLLYTNQNQNNYQELVADPSTITNSNFRMDRKTRFIIHGFIDKGEEDWLSNICKNLFKVESVNCICVDWKGGSRTGYTQASQNIRIVGAEVAYFVEVLKSSLGYSPSNVHVIGHSLGSHAAGEAGRRTNGTIERITGLDPAEPCFQGTPELVRLDPSDAKFVDVIHTDAAPIIPNLGFGMSQTVGHLDFFPNGGKQMPGCQKNILSQIVDIDGIWEGTRDFVACNHLRSYKYYADSILNPDGFAGFPCDSYNVFTANKCFPCPSEGCPQMGHYADRFPGKTNGVSQVFYLNTGDASNFARWRYKVSVTLSGKKVTGHILVSLFGNEGNSRQYEIYKGTLQPDNTHSDEFDSDVEVGDLQKVKFIWYNNNVINPTLPRVGASKITVERNDGKVYDFCSQETVREEVLLTLNPC
Consider B1, for which the “deesterification of paprika carotenoids compared with lipase amano 30” value in test [1] was “far poorer results”.
